{
  "source": "patent US20150299061A1",
  "about": "“FERTILISER COMPOSITION” (priority 2012, published 2015)",
  "tested_on": "grazed pasture",
  "assay": "Field trial on grazed pasture: pasture shoot dry matter from two cuts after treatment application",
  "type": "in vivo",
  "design": "Mean Difference vs C (control) / Mean Difference vs UG-20 / Mean Difference vs UG-20 + GA-10 / Mean Difference vs UG-20 + GA-30 / Mean Difference vs UG-20 + GA-60 / Mean Difference vs UL-20 / Mean Difference vs UL-20 + GA-20 / Mean Difference (Control minus treatment): unit not given here",
  "experimental": "The trial was carried out with a total of eight treatments. The eight treatment groups were • 1. Control—negative control (no nitrogen or gibberellic acid), • 2. GA-20—gibberellic acid positive control (gibberellic acid applied at 20 g/ha), • 3. UG-20—granular urea positive control (granular urea applied at a rate of 20 kg N/ha, • 4. UG-20+GA-10—10 g/ha gibberellic acid-coated urea granules (granular urea-20 coated with gibberellic acid to apply gibberellic acid at a rate of 10 g/ha), • 5. UG-20+GA-30—30 g/ha gibberellic acid-coated urea granules (granular urea-20 coated with gibberellic acid to apply gibberellic acid at a rate of 30 g/ha), and • 6. UG-20+GA-60—60 g/ha gibberellic acid-coated urea granules (granular urea-20 coated with gibberellic acid to apply gibberellic acid at a rate of 60 g/ha). • 7. UL-20—liquid urea positive control (liquid urea applied at a rate of 20 kg N/ha [with total liquid volume of 200 L/ha]), and 8. UL-20+GA-20—liquid urea and gibberellic acid positive control (liquid urea applied at a rate of 20 kg N/ha with gibberellic acid applied at a rate of 20 g/ha).\nThe trial was performed with four repetitions per treatment group on a plot with an area of 2 m^2×2 m^2 at locations in Whangarei, Matamata, Lincoln, Ashburton, and Southland.\nThe treatments were applied on grazed pasture. All experimental sites were fenced off four months prior to treatment application to avoid nitrogen inputs from grazing animals and fertiliser application. At each site, four blocks separated by a 1 m buffer were established. Each block contained eight small plots (each plot of 2m^2×2m^2) separated by a 1 m buffer zone to give a total of 32 plots.\nThe above eight treatments were applied in mid August 2011. Before treatments application, four composite soil samples (0-10 cm soil depth), were collected for key soil properties (i.e. soil pH, organic C &N, Olsen P, K, Ca, Mg, CEC, base saturation and MAF quick test). Each composite soil sample composed of 10 randomly collected soil samples from each block. Pastures from each plot were cut at 4 to 5 cm height using a lawn mower at appropriate times (preferably after every 21 days) to simulate rotational grazing practices. Bulk fresh pasture weight for each plot was recorded. Before mowing pastures from each plot, four small randomly picked pasture samples from each plot were cut using a pair of scissors. Fresh pastures were transferred to sealable plastic bags and were kept in a chilly bin. Fresh pastures from each plastic bag were then be transferred to a pre-weighed paper bag, weighed (at least 2 decimal balance), and dried at 60 to 70° C. for one week. After one week of drying, dry pasture weight was recorded to determine pasture moisture content.\nIn the case of liquid treatments, these were all applied at a rate of 200 L/ha.\nThe effectiveness of the treatments was measured by comparing the pasture shoot dry matter from two cuts after treatment application. The first cut was made on 26 Sep. 2011 and the second cut made on 12 Oct. 2011.\nThe pairwise comparisons were calculated using Fisher's least significant difference (LSD) with P=0.05.",
  "note": "Marks after values point to notes of the source that are not given here.",
  "data": [
    {"smiles": "C=C1C[C@]23C[C@@]1(O)CC[C@H]2[C@@]12C=C[C@H](O)[C@@](C)(C(=O)O1)[C@H]2[C@@H]3C(=O)O", "note": "[GA-20 only, gibberellic acid]", "values": [
      {"measurement": "Cumulative mean pasture dry matter", "setting": "mean for the five treatment areas (Whangarei, Matamata, Lincoln, Ashburton, Southland), two cuts after treatment", "result": 3038.7},
      {"measurement": "Mean Difference (Control minus treatment)", "setting": "pairwise comparison of Table 1 means, Fisher's LSD P=0.05, Control is first treatment, labelled treatment is subtracted", "result": "−757.857*"},
      {"measurement": "Mean Difference vs C (control)", "setting": "pairwise comparison, Fisher's LSD P=0.05, treatment minus C", "result": "757.857*"},
      {"measurement": "Mean Difference vs UG-20", "setting": "pairwise comparison, Fisher's LSD P=0.05, treatment minus UG-20", "result": 56.321},
      {"measurement": "Mean Difference vs UG-20 + GA-10", "setting": "pairwise comparison, Fisher's LSD P=0.05, treatment minus UG-20 + GA-10", "result": "−91.281"},
      {"measurement": "Mean Difference vs UG-20 + GA-30", "setting": "pairwise comparison, Fisher's LSD P=0.05, treatment minus UG-20 + GA-30", "result": "−427.001*"},
      {"measurement": "Mean Difference vs UG-20 + GA-60", "setting": "pairwise comparison, Fisher's LSD P=0.05, treatment minus UG-20 + GA-60", "result": "−381.674*"},
      {"measurement": "Mean Difference vs UL-20", "setting": "pairwise comparison, Fisher's LSD P=0.05, treatment minus UL-20", "result": "−141.578"},
      {"measurement": "Mean Difference vs UL-20 + GA-20", "setting": "pairwise comparison, Fisher's LSD P=0.05, treatment minus UL-20 + GA-20", "result": "−423.846*"}
    ]}
  ]
}
